Test results published in ChEMBL document CHEMBL6120982, “Cell-penetrating anti-sense peptide nucleic acids targeting sulfatase 2 inhibit adipogenesis in human mesenchymal stem cells” (Bioorg Med Chem, 2024).
Activity calls are given as the source filed them. The calls are words filed in the database; no cut-off is given here.

Experiments:
Mesenchymal stem cells [1] = assay: Cytotoxicity against human BMMSC cells assessed as effect on cell viability upto 1 uM incubated for 24 hrs by CCK8 assay; format: toxicity, cell-based
DNA [2] = assay: Binding affinity to C-terminal of 10-mer c-DNA (unknown origin) assessed as melting temperature at 4 uM by UV-Vis spectrophotometric analysis; format: nucleic-acid assay
Mesenchymal stem cells [3] = assay: Inhibition of SULF2 mRNA expression in human BMMSC cells at 0.1 uM by RT-qPCR analysis; format: functional, cell-based
Mesenchymal stem cells [4] = assay: Inhibition of SULF2 mRNA expression in human BMMSC cells by RT-qPCR analysis; format: functional, cell-based; conditions: dose 0.01-1 µM
Mesenchymal stem cells [5] = assay: Anti-adipogenic activity in insulin/dexamthasone/pioglitazone/IBMX differentiated human BMMSC cells assessed as downregulation of adiponectin protein secretion at 1 uM by ELISA; format: functional, cell-based
Mesenchymal stem cells [6] = assay: Anti-adipogenic activity in insulin/dexamthasone/pioglitazone/IBMX differentiated human BMMSC cells assessed as downregulation of adiponectin protein secretion by ELISA; format: functional, cell-based
Mesenchymal stem cells [7] = assay: Effect on osteogenesis in ascorbic acid/dexamethasone/beta-glycerol phosphate differentiated human BMMSC cells; format: functional, cell-based
DNA [8] = assay: Binding affinity to N-terminal of 10-mer c-DNA (unknown origin) assessed as melting temperature at 4 uM by UV-Vis spectrophotometric analysis; format: nucleic-acid assay
[9] = Drug penetration in human BMMSC cells assessed as green fluorescence signal at 0.1 uM incubated for 24 hrs by DAPI staining based confocal microscopic analysis; format: ADME, cell-based; conditions: mesenchymal stem cells
Mesenchymal stem cells [10] = assay: Anti-adipogenic activity in insulin/dexamthasone/pioglitazone/IBMX differentiated human BMMSC cells assessed as decrease in size of intracellular lipid droplets by Oil red O staining based inverted microscopic analysis; format: functional, cell-based; conditions: dose 0.01-1 µM
Mesenchymal stem cells [11] = assay: Anti-adipogenic activity in insulin/dexamthasone/pioglitazone/IBMX differentiated human BMMSC cells assessed as decrease in number of intracellular lipid droplets by Oil red O staining based inverted microscopic analysis; format: functional, cell-based; conditions: dose 0.01-1 µM
DNA [12] = assay: Binding affinity to c-DNA (unknown origin) with mismatch bases assessed as increase in melting temperature by UV-vis spectrophotometric analysis; format: nucleic-acid assay
DNA [13] = assay: Binding affinity to 10-mer DNA (unknown origin) assessed as melting temperature at 4 uM by UV-Vis spectrophotometric analysis; format: nucleic-acid assay

Tm (DNA [2]) | IC50 (Mesenchymal stem cells [6]) | Tm (DNA [8]) | Drug uptake [9] | Activity (DNA [12]) | Tm (DNA [13]) | Compound | Activity (Mesenchymal stem cells [1]) | inhibition (Mesenchymal stem cells [3]) | inhibition (Mesenchymal stem cells [4]) | Activity (Mesenchymal stem cells [5]) | Activity (Mesenchymal stem cells [7]) | Activity (Mesenchymal stem cells [6]) | Activity (Mesenchymal stem cells [10]) | Activity (Mesenchymal stem cells [11])
70 °C | > 1000 nM | – | – | – | – | Cc1cn(CC(=O)N(CCNC(=O)CN(CCNC(=O)CN(CCNC(=O)CN(CCNC(=O)CN(CCNC(=O)CN(CCNC(=O)CN(CCNC(=O)CN(CCNC(=O)CN(CCNC(=O)CN(CCNC(=O)CN(CCNC(=O)CN(CCNC(=O)CN(CCNC(=O)CN(CCNC(=O)CN(CCNC(=O)CN(CCNC(=O)CN(CCNC(=O)CN(CCNC(=O)CN(CCNC(=O)OCCC2c3ccccc3-c3ccccc32)C(=O)Cn2ccc(N)nc2=O)C(=O)Cn2cc(C)c(=O)[nH]c2=O)C(=O)Cn2cc(C)c(=O)[nH]c2=O)C(=O)Cn2cc3cc(COCCN)[nH]c3nc2=O)C(=O)Cn2cc(C)c(=O)[nH]c2=O)C(=O)Cn2cc(C)c(=O)[nH]c2=O)C(=O)Cn2cc(C)c(=O)[nH]c2=O)C(=O)Cn2cc(C)c(=O)[nH]c2=O)C(=O)Cn2cc(C)c(=O)[nH]c2=O)C(=O)Cn2cc(C)c(=O)[nH]c2=O)C(=O)Cn2cc(C)c(=O)[nH]c2=O)C(=O)Cn2cnc3c(=O)[nH]c(NCCCCCCN)nc32)C(=O)Cn2ccc(N)nc2=O)C(=O)Cn2cc(C)c(=O)[nH]c2=O)C(=O)Cn2cnc3c(=O)[nH]c(N)nc32)C(=O)Cn2cnc3c(N)nc(NCCCCCN)nc32)C(=O)Cn2cc(C)c(=O)[nH]c2=O)C(=O)Cn2ccc(N)nc2=O)CC(=O)NCCN(CC(N)=O)C(=O)Cn2cnc3c(=O)[nH]c(NCCCCCCN)nc32)c(=O)[nH]c1=O | Non-toxic | Mild_effect | Dose-dependent-effect | Active | inactive | – | – | –
64 °C | 280 nM | 68.1 °C | – | – | – | Cc1cn(CC(=O)N(CCNC(=O)CN(CCNC(=O)CN(CCNC(=O)CN(CCNC(=O)CN(CCNC(=O)CN(CCNC(=O)CN(CCNC(=O)CN(CCNC(=O)CN(CCNC(=O)CN(CCNC(=O)CN(CCNC(=O)OCCC2c3ccccc3-c3ccccc32)C(=O)Cn2cc(C)c(=O)[nH]c2=O)C(=O)Cn2cnc3c(=O)[nH]c(N)nc32)C(=O)Cn2cnc3c(=O)[nH]c(N)nc32)C(=O)Cn2cnc3c(N)nc(NCCCCCN)nc32)C(=O)Cn2cnc3c(=O)[nH]c(N)nc32)C(=O)Cn2cnc3c(=O)[nH]c(N)nc32)C(=O)Cn2cnc3c(N)nc(NCCCCCN)nc32)C(=O)CN2C=NC3C(=O)NC(N)=NC32)C(=O)Cn2ccc(N)nc2=O)C(=O)Cn2cnc3c(=O)[nH]c(NCCCCCCN)nc32)CC(=O)NCCN(CC(=O)NCCN(CC(=O)NCCN(CC(=O)NCCN(CC(=O)NCCN(CC(=O)NCCN(CC(=O)NCCN(CC(=O)NCCN(CC(=O)NCCN(N)C(=O)Cn2cnc3c(=O)[nH]c(N)nc32)C(=O)Cn2cnc3c(N)nc(NCCCCCN)nc32)C(=O)Cn2ccc(N)nc2=O)C(=O)Cn2cnc3c(N)ncnc32)C(=O)Cn2cnc3c(N)ncnc32)C(=O)Cn2cnc3c(=O)[nH]c(NCCCCCCN)nc32)C(=O)Cn2cnc3c(=O)[nH]c(N)nc32)C(=O)Cn2cnc3c(N)ncnc32)C(=O)Cn2cnc3c(=O)[nH]c(N)nc32)c(=O)[nH]c1=O (centres undefined) | Non-toxic | Active | Dose-dependent-effect | Active | inactive | Dose-dependent-effect | Dose-dependent-effect | Dose-dependent-effect

Second part, the compound before the results:

Compound | Tm (DNA [2]) | IC50 (Mesenchymal stem cells [6]) | Tm (DNA [8]) | Drug uptake [9] | Activity (DNA [12]) | Tm (DNA [13]) | Activity (Mesenchymal stem cells [1]) | inhibition (Mesenchymal stem cells [3]) | inhibition (Mesenchymal stem cells [4]) | Activity (Mesenchymal stem cells [5]) | Activity (Mesenchymal stem cells [7]) | Activity (Mesenchymal stem cells [6]) | Activity (Mesenchymal stem cells [10]) | Activity (Mesenchymal stem cells [11])
Cc1cn(CC(=O)N(CCNC(=O)CN(CCNC(=O)CN(CCNC(=O)CN(CCNC(=O)CN(CCNC(=O)CN(CCNC(=O)CN(CCNC(=O)CN(CCNC(=O)CN(CCNC(=O)CN(CCNC(=O)CN(CCNC(=O)CN(CCNC(=O)CN(CCNC(=O)CN(CCNC(=O)CN(CCNC(=O)CN(CCNC(=O)CN(CCNC(=O)OCCC2c3ccccc3-c3ccccc32)C(=O)Cn2cnc3c(=O)[nH]c(N)nc32)C(=O)Cn2cnc3c(=O)[nH]c(NCCCCCCN)nc32)C(=O)Cn2cnc3c(=O)[nH]c(N)nc32)C(=O)Cn2ccc(N)nc2=O)C(=O)Cn2cnc3c(N)nc(NCCCCCN)nc32)C(=O)Cn2cnc3c(=O)[nH]c(N)nc32)C(=O)Cn2ccc(N)nc2=O)C(=O)Cn2cnc3c(N)ncnc32)C(=O)Cn2ccc(N)nc2=O)C(=O)Cn2cnc3c(N)nc(NCCCCCN)nc32)C(=O)Cn2cc(C)c(=O)[nH]c2=O)C(=O)Cn2cnc3c(=O)[nH]c(N)nc32)C(=O)Cn2cnc3c(=O)[nH]c(N)nc32)C(=O)Cn2cnc3c(=O)[nH]c(NCCCCCCN)nc32)C(=O)Cn2cc(C)c(=O)[nH]c2=O)C(=O)Cn2cnc3c(=O)[nH]c(N)nc32)CC(N)=O)c(=O)[nH]c1=O | 75.5 °C | > 1000 nM | 83.5 °C | – | – | – | Non-toxic | Active | Dose-dependent-effect | Active | inactive | – | – | –
O=C(O)c1ccc2c(c1)C(=O)OC21c2ccc(O)cc2Oc2cc(O)ccc21 | – | – | – | Active | – | – | – | – | – | – | – | – | – | –
NCCCCCNc1nc(N)c2ncn(CC(=O)N(CCNC(=O)CN(CCNC(=O)CN(CCNC(=O)CN(CCN)C(=O)Cn3cnc4c(N)ncnc43)C(=O)Cn3cnc4c(=O)[nH]c(N)nc43)C(=O)Cn3ccc(N)nc3=O)CC(=O)NCCN(CC(=O)NCCN(CC(=O)NCCN(CC(=O)NCCN(CC(=O)NCCN(CC(=O)NCCN(CC(N)=O)C(=O)Cn3cnc4c(N)ncnc43)C(=O)Cn3ccc(N)nc3=O)C(=O)Cn3cnc4c(N)nc(NCCCCCN)nc43)C(=O)Cn3cnc4c(=O)[nH]c(N)nc43)C(=O)Cn3cnc4c(N)nc(NCCCCCN)nc43)C(=O)Cn3ccc(N)nc3=O)c2n1 | – | – | – | – | inactive | 73.6 °C | – | – | – | – | – | – | – | –
